Data: patent US8106225B2, “Methods of preparing substituted tetracyclines with transition metal-based chemistries” (Trustees of Tufts College, priority 1999, dated 2012)

Legend:
Experiment in all cases: Antibacterial activity in vitro, MIC by broth dilution
Format in all cases: cell-based
[1] = test system: E. coli D31m4 Tc^s; settings: E. coli D31m4, tetracycline susceptible, 18 hrs
Procedure: (§1) Various compounds made in accordance with the invention were evaluated for anti-bacterial activity in vitro as follows. The minimum inhibitory concentration, the lowest concentration of drug that inhibits bacterial growth at 18 hrs at their appropriate temperature, is determined by the broth dilution method using L-broth or Mueller-Hinton broth. The Mueller-Hinton broth was cation-adjusted accordingly and all bacteriological methods were performed as was described by Waitz, J. A., National Commission for Clinical Laboratory Standards Document M7-A2, vol. 10, no. 8, pp. 13-20, 2nd edition, Villanova, Pa. (1990). The organisms tested represent gram-positive and gram-negative bacterial species that are susceptible to tetracyclines or are resistant to tetracyclines due to the ability to efflux tetracyclines or which confer resistance by ribosomal protection mechanisms. The clinical strains used are either susceptible to tetracyclines or are resistant to them by either drug efflux or ribosomal protection.

[2] = test system: E. hirae 9790 with pMV158 Tc^r; settings: E. hirae 9790 with pMV158, tetracycline resistant, 18 hrs
Procedure: as §1

[3] = test system: E. coli D 31m4 pHCM1 Tc^r; settings: E. coli D 31m4 pHCM1, tetracycline resistant, 18 hrs
Procedure: as §1

[4] = test system: S. aureus RN4250 Tc^r; settings: S. aureus RN4250, tetracycline resistant, 18 hrs
Procedure: as §1

[5] = test system: S. aureus RN450 Tc^s; settings: S. aureus RN450, tetracycline susceptible, 18 hrs
Procedure: as §1

[6] = test system: E. hirae 9790 with pAM211 Tc^r; settings: E. hirae 9790 with pAM211, tetracycline resistant, 18 hrs
Procedure: as §1

[7] = test system: E. coli D1-299 Tc^r; parameters: unit not given here; settings: E. coli D1-299, tetracycline resistant, 18 hrs
Procedure: as §1

[8] = test system: E. coli D1-209 Tc^r; parameters: unit not given here; settings: E. coli D1-209, tetracycline resistant, 18 hrs
Procedure: as §1

[9] = test system: S. aureus MRSA5 Tc^r; parameters: unit not given here; settings: S. aureus MRSA5, tetracycline resistant, 18 hrs
Procedure: as §1

[10] = test system: S. warnerii Tc^r ATCC12715; parameters: unit not given here; settings: S. warnerii ATCC12715, tetracycline resistant, 18 hrs
Procedure: as §1

[11] = test system: E. coli ML308-225 Tc^s; parameters: unit not given here; settings: E. coli ML308-225, tetracycline susceptible, 18 hrs
Procedure: as §1

[12] = test system: E. hirae ATCC9790 Tc^s; parameters: unit not given here; settings: E. hirae ATCC9790, tetracycline susceptible, 18 hrs
Procedure: as §1

| SMILES | Antibacterial Activity (minimum inhibitory concentration) [1] | Antibacterial Activity (minimum inhibitory concentration) [2] | Antibacterial Activity (minimum inhibitory concentration) [3] | Antibacterial Activity (minimum inhibitory concentration) [4] | Antibacterial Activity (minimum inhibitory concentration) [5] | Antibacterial Activity (minimum inhibitory concentration) [6] | Antibacterial Activity (minimum inhibitory concentration) [7] | Antibacterial Activity (minimum inhibitory concentration) [8] | Antibacterial Activity (minimum inhibitory concentration) [9] | Antibacterial Activity (minimum inhibitory concentration) [10] | Antibacterial Activity (minimum inhibitory concentration) [11] | Antibacterial Activity (minimum inhibitory concentration) [12] |
| --- | --- | --- | --- | --- | --- | --- | --- | --- | --- | --- | --- | --- |
| CC1c2ccc(/C=C/C(=O)O)c(O)c2C(=O)C2=C(O)C3(O)C(=O)C(C(N)=O)=C(O)[C@@H](N(C)C)C3C(O)C21 (stereo partly drawn) [D, [4S-(4a,12aα)]-9-[3′-(E)-propenoic acid]-4-(dimethylamino)-1,4,4a,5,5a,6,11,12a-octahydro-3,5,10,12,12a-pentahydroxy-6-methyl-1,11-dioxo-2-naphthacenecarboxamide] | >50 | 12.5 | >50 | >50 | 3.12 | >50 | >50 | >50 | >50 | >50 | 25 | 3.12 |
| C[C@H]1c2cccc(O)c2C(=O)C2=C(O)[C@]3(O)C(=O)C(C(N)=O)=C(O)[C@@H](N(C)C)[C@@H]3[C@@H](O)[C@@H]21 [Doxy, [4S-(4a,12aα)]-4-(dimethylamino)-1,4,4a,5,5a,6,11,12a-octahydro-3,5,10,12,12a-pentahydroxy-6-methyl-1,11-dioxo-2-naphthacenecarboxamide, reference compound] | 1.56 |  | 25 | 25 | <0.098 |  | 25 | 50 | 6.25 | 50 | 0.78 | 0.195 |
| CCCCOC(=O)/C=C/c1ccc2c(c1O)C(=O)C1=C(O)C3(O)C(=O)C(C(N)=O)=C(O)[C@@H](N(C)C)C3C(O)C1C2C (stereo partly drawn) [E, [4S-(4a,12aα)]-9-[3′-(E)-butylpropenoate]-4-(dimethylamino)-1,4,4a,5,5a,6,11,12a-octahydro-3,5,10,12,12a-pentahydroxy-6-methyl-1,11-dioxo-2-naphthacenecarboxamide] |  |  |  |  | 0.78 |  | >50 | >50 | 0.39 | 6.25 | 6.25 | 3.12 |
| CCCCOC(=O)/C=C/c1cc(N(C)C)c2c(c1O)C(=O)C1=C(O)C3(O)C(=O)C(C(N)=O)=C(O)C(N(C)C)C3CC1C2 (stereo not drawn) [F, [4S-(4a,12aα)]-9-[3′-(E)-butylpropenoate]-4,7-Bis(dimethylamino)-1,4,4a,5,5a,6,11,12a-octahydro-3,10,12,12a-tetrahydroxy-1,11-dioxo-2-naphthacenecarboxamide] | 3.12 |  | 6.25 |  | 1.56 |  | >50 | >50 | 3.12 | 3.12 | >50 | 3.12 |
| CN(C)C1C(O)=C(C(N)=O)C(=O)C2(O)C(O)=C3C(=O)c4c(O)ccc(-c5ccc(Cl)cc5)c4CC3CC12 (centres unmarked) [G] | 0.78 | ≦0.098 | 0.78 | ≦0.098 | ≦0.098 | ≦0.098 | >50 | >50 | 0.195 | ≦0.098 | >50 | ≦0.098 |
| CN(C)C1C(O)=C(C(N)=O)C(=O)C2(O)C(O)=C3C(=O)c4c(O)c(-c5ccccc5)cc(-c5ccccc5)c4CC3CC12 (stereo not drawn) [H, [4S-(4a,12aα)]-7-phenyl-9-phenyl-4-(dimethylamino)-1,4,4a,5,5a,6,11,12a-octahydro-3,10,12,12a-tetrahydroxy-1,11-dioxo-2-naphthacenecarboxamide] | 1.56 | 0.39 |  | 0.78 | 1.56 |  | >50 | >50 | 0.78 | 0.78 | >50 | 0.78 |
| Cc1ccc(C=C2c3cccc(O)c3C(=O)C3=C(O)C4(O)C(=O)C(C(N)=O)=C(O)C(N(C)C)C4C(O)C23)cc1 (stereo not drawn) [I, [4S-(4a,12aα)]-13-(4′-methylphenyl)-4-(dimethylamino)-1,4,4a,5,5a,6,11,12a-octahydro-3,5,10,12,12a-pentahydroxy-6-methylene-1,11-dioxo-2-naphthacenecarboxamide] |  | 3.12 | 25 |  | ≦0.098 |  | >50 | >50 | 6.25 | 12.5 | >50 | 0.39 |
| CN(C)[C@@H]1C(O)=C(C(N)=O)C(=O)C2(O)C(O)=C3C(=O)c4c(O)cccc4C(=Cc4cccc(C(=O)O)c4)C3C(O)C12 (stereo partly drawn) [J, [4S-(4a,12aα)]-13-(3′-carboxyphenyl)-4-(dimethylamino)-1,4,4a,5,5a,6,11,12a-octahydro-3,5,10,12,12a-pentahydroxy-6-methylene-1,11-dioxo-2-naphthacenecarboxamide] | >50 | >50 | >50 | >50 | 0.39 | >50 | >50 | >50 | >50 | >50 | >50 | 3.12 |
| CCOc1ccc(C=C2c3cccc(O)c3C(=O)C3=C(O)C4(O)C(=O)C(C(N)=O)=C(O)C(N(C)C)C4C(O)C23)cc1 (stereo not drawn) [K, [4S-(4a,12aα)]-13-(4′-ethoxyphenyl)-4-(dimethylamino)-1,4,4a,5,5a,6,11,12a-octahydro-3,5,10,12,12a-pentahydroxy-6-methylene-1,11-dioxo-2-naphthacenecarboxamide] |  |  | >50 |  | 0.195 | 3.12 | >50 | >50 | 6.25 | 12.5 |  | 0.39 |
